For the data set, the system named is CCRIS mutagenicity, Ames/micronucleus/aberration tests. As to the kind of experiment: CCRIS mutagenicity studies.
Setting [1] is: Test System: AMES SALMONELLA TYPHIMURIUM, Strain/Indicator: TA98, Metabolic Activation: NONE, Method: STANDARD PLATE.
[2] abbreviates: Test System: AMES SALMONELLA TYPHIMURIUM, Strain/Indicator: TA98, Metabolic Activation: RAT, LIVER, S-9, AROCLOR 1254, Method: STANDARD PLATE.
The mark [3] stands for this setting: Test System: AMES SALMONELLA TYPHIMURIUM, Strain/Indicator: TA100, Metabolic Activation: NONE, Method: STANDARD PLATE.
The mark [4] stands for this setting: Test System: AMES SALMONELLA TYPHIMURIUM, Strain/Indicator: TA100, Metabolic Activation: RAT, LIVER, S-9, AROCLOR 1254, Method: STANDARD PLATE.
The mark [5] stands for this setting: Test System: AMES SALMONELLA TYPHIMURIUM, Strain/Indicator: TA1535, Metabolic Activation: NONE, Method: STANDARD PLATE.
[6] abbreviates: Test System: AMES SALMONELLA TYPHIMURIUM, Strain/Indicator: TA1535, Metabolic Activation: RAT, LIVER, S-9, AROCLOR 1254, Method: STANDARD PLATE.
Setting [7] is: Test System: AMES SALMONELLA TYPHIMURIUM, Strain/Indicator: TA1537, Metabolic Activation: NONE, Method: STANDARD PLATE.
Setting [8] is: Test System: AMES SALMONELLA TYPHIMURIUM, Strain/Indicator: TA1537, Metabolic Activation: RAT, LIVER, S-9, AROCLOR 1254, Method: STANDARD PLATE.
The mark [9] stands for this setting: Test System: AMES SALMONELLA TYPHIMURIUM, Strain/Indicator: TA1538, Metabolic Activation: NONE, Method: STANDARD PLATE.
[10] abbreviates: Test System: AMES SALMONELLA TYPHIMURIUM, Strain/Indicator: TA1538, Metabolic Activation: RAT, LIVER, S-9, AROCLOR 1254, Method: STANDARD PLATE.
Setting [11] is: Test System: E. COLI, Strain/Indicator: WP2, Metabolic Activation: NONE, Method: STANDARD PLATE.
Setting [12] is: Test System: E. COLI, Strain/Indicator: WP2, Metabolic Activation: RAT, LIVER, S-9, AROCLOR 1254, Method: STANDARD PLATE.

The source made the active and inactive calls. How the calls were made is not given here.

Take `O=C(O)CNCP(=O)(O)O`: the mutagenic call by setting is: (End Point: IN VITRO MICRONUCLEUS, Test System: BOVINE LYMPHOCYTES, Metabolic Activation: NONE) “inactive; negative”; (End Point: IN VIVO CHROMOSOMAL ABERRATIONS, Test System: BONE MARROW ERYTHROCYTES, Species: RABBIT, Strain/Sex: NEW ZEALAND/MALE, Route: DRINKING WATER) “active; positive (structural changes and ploidy)”; (End Point: IN VIVO MICRONUCLEUS, Test System: BONE MARROW POLYCHROMATIC ERYTHROCYTES, Species: MOUSE, Strain/Sex: SWISS/MALE, FEMALE, Route: IP 2X IN AQUEOUS SUSPENSION WITHIN 24 HR) “inactive; negative”; (End Point: In vitro chromosomal aberrations, Test System: Bovine peripheral lymphocytes, Metabolic Activation: None) “inactive; negative”; (End Point: In vivo micronucleus, Test System: Bone marrow erythrocytes, Species: Mouse, Strain/Sex: Balb C/Male, female, Route: Intraperitoneal injection) “active; positive (highest dose only)”; (Test System: AMES SALMONELLA TYPHIMURIUM, Strain/Indicator: TA97, Metabolic Activation: HAMSTER, LIVER, S-9, AROCLOR 1254 (10%), Method: PREINCUBATION) “inactive; negative”. Besides, the mutagenic call reads like this: (Test System: AMES SALMONELLA TYPHIMURIUM, Strain/Indicator: TA97, Metabolic Activation: HAMSTER, LIVER, S-9, AROCLOR 1254 (30%), Method: PREINCUBATION) “inactive; negative”; (Test System: AMES SALMONELLA TYPHIMURIUM, Strain/Indicator: TA97, Metabolic Activation: NONE, Method: PREINCUBATION) “inactive; negative”; (Test System: AMES SALMONELLA TYPHIMURIUM, Strain/Indicator: TA97, Metabolic Activation: RAT, LIVER, S-9, AROCLOR 1254 (10%), Method: PREINCUBATION) “inactive; negative”; (Test System: AMES SALMONELLA TYPHIMURIUM, Strain/Indicator: TA97, Metabolic Activation: RAT, LIVER, S-9, AROCLOR 1254 (30%), Method: PREINCUBATION) “inactive; negative”; (Test System: AMES SALMONELLA TYPHIMURIUM, Strain/Indicator: TA98, Metabolic Activation: HAMSTER, LIVER, S-9, AROCLOR 1254 (10%), Method: PREINCUBATION) “inactive; negative”; (Test System: AMES SALMONELLA TYPHIMURIUM, Strain/Indicator: TA98, Metabolic Activation: HAMSTER, LIVER, S-9, AROCLOR 1254 (30%), Method: PREINCUBATION) “inactive; negative”. Further, the mutagenic call by setting is: (Test System: AMES SALMONELLA TYPHIMURIUM, Strain/Indicator: TA98, Metabolic Activation: NONE, Method: PREINCUBATION) “inactive; negative”; under setting [1], “inactive; negative”; (Test System: AMES SALMONELLA TYPHIMURIUM, Strain/Indicator: TA98, Metabolic Activation: RAT, LIVER, S-9, AROCLOR 1254 (10%), Method: PREINCUBATION) “inactive; negative”; (Test System: AMES SALMONELLA TYPHIMURIUM, Strain/Indicator: TA98, Metabolic Activation: RAT, LIVER, S-9, AROCLOR 1254 (30%), Method: PREINCUBATION) “inactive; negative”; under setting [2], “inactive; negative”; (Test System: AMES SALMONELLA TYPHIMURIUM, Strain/Indicator: TA98, Metabolic Activation: S-9, AROCLOR 1254, Method: STANDARD PLATE) “inactive; negative”. Moreover, the mutagenic call (Test System: AMES SALMONELLA TYPHIMURIUM, Strain/Indicator: TA100, Metabolic Activation: HAMSTER, LIVER, S-9, AROCLOR 1254 (10%), Method: PREINCUBATION) is “inactive; negative”; the mutagenic call (Test System: AMES SALMONELLA TYPHIMURIUM, Strain/Indicator: TA100, Metabolic Activation: HAMSTER, LIVER, S-9, AROCLOR 1254 (30%), Method: PREINCUBATION) is “inactive; negative”; the mutagenic call (Test System: AMES SALMONELLA TYPHIMURIUM, Strain/Indicator: TA100, Metabolic Activation: NONE, Method: PREINCUBATION) is “inactive; negative”; the mutagenic call under setting [3] was “inactive; negative”; the mutagenic call (Test System: AMES SALMONELLA TYPHIMURIUM, Strain/Indicator: TA100, Metabolic Activation: RAT, LIVER, S-9, AROCLOR 1254 (10%), Method: PREINCUBATION) was “inactive; negative”; the mutagenic call (Test System: AMES SALMONELLA TYPHIMURIUM, Strain/Indicator: TA100, Metabolic Activation: RAT, LIVER, S-9, AROCLOR 1254 (30%), Method: PREINCUBATION) was “inactive; negative”. Besides, the mutagenic call was “inactive; negative” under setting [4]; “active; positive” (Test System: AMES SALMONELLA TYPHIMURIUM, Strain/Indicator: TA100, Metabolic Activation: S-9, AROCLOR 1254, Method: STANDARD PLATE); “inactive; negative” (Test System: AMES SALMONELLA TYPHIMURIUM, Strain/Indicator: TA1535, Metabolic Activation: HAMSTER, LIVER, S-9, AROCLOR 1254 (10 OR 30%), Method: PREINCUBATION); “inactive; negative” (Test System: AMES SALMONELLA TYPHIMURIUM, Strain/Indicator: TA1535, Metabolic Activation: NONE, Method: PREINCUBATION); “inactive; negative” under setting [5]; “inactive; negative” (Test System: AMES SALMONELLA TYPHIMURIUM, Strain/Indicator: TA1535, Metabolic Activation: RAT, LIVER, S-9, AROCLOR 1254 (10 OR 30%), Method: PREINCUBATION). The mutagenic call is, setting by setting: under setting [6], “inactive; negative”; under setting [7], “inactive; negative”; under setting [8], “inactive; negative”; under setting [9], “inactive; negative”; under setting [10], “inactive; negative”; (Test System: CHO/HGPRT, Strain/Indicator: CHO-K1-BH4, Metabolic Activation: NONE, Method: PREINCUBATION) “inactive; negative”. Besides, the mutagenic call is “inactive; negative” (Test System: CHO/HGPRT, Strain/Indicator: CHO-K1-BH4, Metabolic Activation: RAT, LIVER, S-9, AROCLOR 1254, Method: PREINCUBATION); “inactive; negative” under setting [11]; “inactive; negative” under setting [12].
As to `O=C(O)CCCC[C@@H]1SC[C@@H]2NC(=O)N[C@@H]21`, the mutagenic call was “inactive; negative” under setting [1]; “inactive; negative” under setting [2]; “inactive; negative” under setting [3]; “inactive; negative” under setting [4]; “inactive; negative” under setting [5]; “inactive; negative” under setting [6]. The mutagenic call under setting [7] was “inactive; negative”; the mutagenic call under setting [8] was “inactive; negative”; the mutagenic call under setting [9] is “inactive; negative”; the mutagenic call under setting [10] was “inactive; negative”; the mutagenic call under setting [11] was “inactive; negative”; the mutagenic call under setting [12] is “inactive; negative”.
With `Cc1cc(N)c([N+](=O)[O-])cc1N`, the mutagenic call by setting is: under setting [1], “inactive; negative”; under setting [2], “active; positive”; under setting [3], “inactive; negative”; under setting [4], “inactive; negative”; under setting [5], “inactive; negative”; under setting [6], “inactive; negative”. The mutagenic call is, setting by setting: under setting [7], “inactive; negative”; under setting [8], “active; positive”; under setting [9], “inactive; negative”; under setting [10], “active; positive”.
In the case of `COC(=O)c1oc([N+](=O)[O-])c(Cl)c1Cl`, the mutagenic call reads like this: under setting [1], “active; positive”; (Test System: AMES SALMONELLA TYPHIMURIUM, Strain/Indicator: TA100(NR), Metabolic Activation: NONE, Method: STANDARD PLATE) “active; positive”; (Test System: AMES SALMONELLA TYPHIMURIUM, Strain/Indicator: TA100, Metabolic Activation: NONE, Method: STANDARD PLATE (ANAEROBIC INCUBATION)) “active; positive”.

(Values after PubChem BioAssay AID1259407 (Chemical Carcinogenesis Research Information System (CCRIS), 2018).)
